Measurements as given in article PMC12775819, “Optimizing PSMA-617-based inhibitors through charged linker modifications: Insights into structure-activity relationships” (Theranostics, 2026).
Each block holds one molecule with its values, some of them ahead of it. Non-standard residues stand in square brackets, D forms with d. Residues, ends and D or L forms follow the SMILES beside them. *: point of attachment. DOTA = O=C(O)CN1CCN(CC(=O)O)CCN(CC(=O)*)CCN(CC(=O)O)CC1; EuK = O=C(O)CC[C@H](NC(=O)N[C@@H](CCCCN*)C(=O)O)C(=O)O; 2Nal = N[C@@H](Cc1ccc2ccccc2c1)C(=O)O; Trx = NC[C@H]1CC[C@H](C(=O)O)CC1

Columns and labels:
[1] = Static small-animal PET imaging 1 h and 2 h p.i.; conditions: male, BALB/c nu/nu, mouse, tumor / kidney, iv, 500 pmol, total radioactivity
in vivo [2] = conditions: male, BALB/c nu/nu, mouse, iv, 500 pmol, total radioactivity
in vivo [3] = conditions: male, BALB/c nu/nu, mouse, iv, 500 pmol, total radioactivity; remark: listed apart in the source
in vitro = in vitro ADME; conditions: mouse, serum
Experimental: Incubation in human and murine serum (BioIVT, United Kingdom) was used to determine the stability of the described precursors. First, the substances were labeled with [^177Lu]Lu^3+ and added to 100 µl of pre-warmed serum (0.5 nmol, 3 - 10 MBq). The reaction mixture was incubated at 37 °C and 10 µl samples were taken at regular intervals (0, 6, 24, 48, 72 h). After precipitation of the proteins by the addition of 30 µl of acetonitrile, the probes were centrifuged for 2 min at 14,000 rpm and the stability determined by analytical radio-HPLC of the […].

- tissue to tissue ratio at 1 h [1]: 0.47 ± 0.14
- tissue to tissue ratio at 2 h [1]: 0.73 ± 0.14
Compound: O=C(O)CC[C@H](NC(=O)N[C@@H](CCCCNC(=O)[C@H](Cc1ccc2ccccc2c1)NC(=O)[C@H](Cc1c[nH]cn1)NC(=O)[C@H](CCC(=O)O)NC(=O)[C@H](Cc1c[nH]cn1)NC(=O)[C@H](CCC(=O)O)NC(=O)[C@H](Cc1c[nH]cn1)NC(=O)[C@H](CCC(=O)O)NC(=O)[C@H]1CC[C@H](CNC(=O)CN2CCN(CC(=O)O)CCN(CC(=O)O)CCN(CC(=O)O)CC2)CC1)C(=O)O)C(=O)O [[^68Ga]Ga-PS2, metal not drawn] ({DOTA-Trx}-EHEHEH[2Nal]-EuK)

- SUV at 1 h (in vivo [2]): 1.17 SUV
- tissue to tissue ratio at 1 h (in vivo [3]): 16.2 ± 0.27
Compound: O=C(O)CC[C@H](NC(=O)N[C@@H](CCCCNC(=O)[C@H](Cc1ccc2ccccc2c1)NC(=O)[C@H]1CC[C@H](CNC(=O)[C@H](CCC(=O)O)NC(=O)[C@H](CCC(=O)O)NC(=O)[C@H](CCC(=O)O)NC(=O)CN2CCN(CC(=O)O)CCN(CC(=O)O)CCN(CC(=O)O)CC2)CC1)C(=O)O)C(=O)O [[^68Ga]Ga-PS8, metal not drawn] ({DOTA}-EEE[Trx][2Nal]-EuK)

- metabolised at 24 h, 5 µM (in vitro): ~40%
Compound: O=C(O)CC[C@H](NC(=O)N[C@@H](CCCCNC(=O)[C@H](Cc1c[nH]cn1)NC(=O)[C@H](Cc1c[nH]cn1)NC(=O)[C@H](Cc1c[nH]cn1)NC(=O)[C@H](Cc1ccc2ccccc2c1)NC(=O)[C@H]1CC[C@H](CNC(=O)CN2CCN(CC(=O)O)CCN(CC(=O)O)CCN(CC(=O)O)CC2)CC1)C(=O)O)C(=O)O [[^177Lu]Lu-PS9, metal not drawn] ({DOTA-Trx}-[2Nal]HHH-EuK)

- remaining at 48 h, 5 µM (in vitro): 64%
Compound: O=C(O)CC[C@H](NC(=O)N[C@@H](CCCCNC(=O)[C@H](Cc1ccc2ccccc2c1)NC(=O)[C@H](Cc1c[nH]cn1)NC(=O)[C@H](Cc1c[nH]cn1)NC(=O)[C@H](Cc1c[nH]cn1)NC(=O)[C@H]1CC[C@H](CNC(=O)CN2CCN(CC(=O)O)CCN(CC(=O)O)CCN(CC(=O)O)CC2)CC1)C(=O)O)C(=O)O [[^177Lu]Lu-PS10, metal not drawn] ({DOTA-Trx}-HHH[2Nal]-EuK)
